Article PMC4855831, “Cloning, expression and characterization of a β-D-xylosidase from Lactobacillus rossiae DSM 15814^T” (Microbial Cell Factories, 2016)

Target: T1, XylA (β-D-xylosidase, LROS_1108) (Furfurilactobacillus rossiae, UniProt A0A0R1REJ8)
T1 construct: gene FD35_GL000933; host Lactococcus lactis subsp. cremoris NZ9000; crude cell extract; from primers N-terminus MKIQNPVL, C-terminus KELPETK; EC 3.2.1.37
Assay: p-nitrophenol release at […] nm, XylA-containing crude cell extract
Assay type: biochemical
Conditions: 5 mM pNPX, 50 mM phosphate buffer pH 5.7, 37.5 °C, 10 min

T1 sequence (A0A0R1REJ8 entry or part of it): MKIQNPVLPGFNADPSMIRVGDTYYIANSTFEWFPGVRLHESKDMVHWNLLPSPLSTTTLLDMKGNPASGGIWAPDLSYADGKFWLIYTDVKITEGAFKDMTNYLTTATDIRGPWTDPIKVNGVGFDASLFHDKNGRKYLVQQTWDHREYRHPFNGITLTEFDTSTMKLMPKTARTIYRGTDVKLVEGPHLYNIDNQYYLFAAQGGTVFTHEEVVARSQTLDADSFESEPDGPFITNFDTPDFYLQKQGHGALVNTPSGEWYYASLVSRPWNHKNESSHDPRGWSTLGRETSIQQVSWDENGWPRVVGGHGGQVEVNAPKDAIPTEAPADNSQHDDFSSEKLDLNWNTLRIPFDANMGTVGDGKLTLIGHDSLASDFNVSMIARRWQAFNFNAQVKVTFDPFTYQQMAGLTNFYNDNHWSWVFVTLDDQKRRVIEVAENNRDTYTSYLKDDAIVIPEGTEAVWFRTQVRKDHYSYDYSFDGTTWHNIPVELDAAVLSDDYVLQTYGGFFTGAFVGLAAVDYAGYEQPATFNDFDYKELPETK

O=[N+]([O-])c1ccc(O[C@@H]2OC[C@@H](O)[C@H](O)[C@H]2O)cc1 [p-nitrophenyl-β-D-xylopyranoside]
p-nitrophenol release at 410 nm, XylA-containing crude cell extract: amount of p-nitrophenol (pNP) released from p-nitrophenyl-β-D-xylopyranoside (pNPX) substrate
